For data set [1], the system named is sugar cane. Description: Phytotoxicity on sugar cane, spray above weed before planting, metalaxyl-treated stem cutting (Example 13). As to the method:
(§1) The “phytotoxicity” evaluated herein is the damage characteristic determined to be due to a treated compound, and is clearly discriminated from the damage characteristic caused by a harmful animal or plant disease.
A soil is packed into a plastic pot, and seeds of Amaranthus retroflexus are seeded thereon. Thereafter, a pot is placed in a greenhouse, and the weed is grown.
(§2) A 30 cm to 40 cm stem cutting of sugar cane is placed on a wet soil, and germination is stimulated. The stem cutting from which a bud has grown to about 1 cm is selected, and the length of the stem cutting is adjusted to be 3 cm so that the stem cutting has one node. Metalaxyl or metalaxyl-M is adhered to the stem cutting.
(§3) The pot for a test is placed in a greenhouse.

Data set [2] has as its system Amaranthus retroflexus. Briefly: Herbicidal activity, soil surface spray, strobilurin-treated stem cutting (Example 8). The class given is in vivo. To be noted: 3 cm stem cutting treated with kresoxim-methyl, azoxystrobin or another listed strobilurin fungicide, four weeks after treatment.
From the text: A 30 cm to 40 cm stem cutting of sugar cane is placed on a wet soil, and germination is stimulated. The stem cutting from which a bud has grown to about 1 cm is selected, and the length of the stem cutting is adjusted to be 3 cm so that the stem cutting has one node. Kresoxim-methyl, azoxystrobin, trifloxystrobin, fluoxastrobin, picoxystrobin, pyraclostrobin, dimoxystrobin, pyribencarb, metominostrobin, orysastrobin, enestrobin, pyraoxystrobin or pyrametostrobin is adhered to the stem cutting. A soil is packed into a plastic pot, and seeds of Amaranthus retroflexus are seeded thereon. The stem cutting of sugar cane treated with kresoxim-methyl, azoxystrobin, trifloxystrobin, fluoxastrobin, picoxystrobin, pyraclostrobin, dimoxystrobin, pyribencarb, metominostrobin, orysastrobin, enestrobin, pyraoxystrobin or pyrametostrobin is planted in the soil packed into the pot at a depth of 2 cm. […] Thereafter, the pot for a test is placed in a greenhouse.
The subject of data set [3] is Amaranthus retroflexus. Briefly: Herbicidal activity, spray above weed before planting, azole-fungicide-treated stem cutting (Example 11). The class given is in vivo. Particulars: sprayed above weed, 3 cm stem cutting treated with azaconazole, bitertanol or another listed azole-type fungicide planted one week after treatment, four weeks after treatment.
Protocol: A soil is packed into a plastic pat, and seeds of Amaranthus retroflexus are seeded thereon. Thereafter, the pot is placed in a greenhouse, and the weed is grown.
Data set [4] relates to sugar cane. Description: Phytotoxicity on sugar cane, spray above weed one week before planting (Example 5). As to the method: as §1
(§4) A soil is packed into a plastic pot, and seeds of Amaranthus retroflexus are seeded thereon. Thereafter, the pot is placed in a greenhouse, and the weed is grown.
A 30 cm to 40 cm stem cutting of sugar cane is placed on a wet soil, and germination is stimulated. The stem cutting from which a bud has been grown to about 1 cm is selected, and the length of the stem cutting is adjusted to be 3 cm so that the stem cutting has one node.
as §3

Data set [5] has as its system Amaranthus retroflexus. Briefly: Herbicidal activity, soil surface spray, insecticide-treated stem cutting (Example 6). It counts as in vivo. To be noted: 3 cm stem cutting treated with clothianidin, thiamethoxiam, imidacloprid, dinotefuran, nitenpyram, acetamiprid or thiacloprid, four weeks after treatment.
Protocol: A 30 cm to 40 cm stem cutting of sugar cane is placed on a wet soil, and germination is stimulated. The stem cutting from which a bud has grown to about 1 cm is selected, and the length of the stem cutting is adjusted to be 3 cm so that the stem cutting has one node. Clothianidin, thiamethoxiam, imidacloprid, dinotefuran, nitenpyram, acetamiprid or thiacloprid is adhered to the stem cutting. A soil is packed into a plastic pot, and seeds of Amaranthus retroflexus are seeded thereon. The stem cutting of sugar cane treated with clothianidin, thiamethoxiam, imidacloprid, dinotefuran, nitenpyram, acetamiprid or thiacloprid is planted in the soil packed into the pot at a depth of 2 cm. […] Thereafter, the pot for a test is placed in a greenhouse.
Data set [6] has as its system Amaranthus retroflexus. Briefly: Herbicidal activity, spray above weed one week before planting (Example 5). The class given is in vivo. To be noted: sprayed above weed three weeks after seeding, 3 cm stem cutting planted one week after treatment, four weeks after treatment.
The test system of data set [7] is Amaranthus retroflexus. Description: Herbicidal activity, soil surface spray, azole-fungicide-treated stem cutting (Example 10). To be noted: 3 cm stem cutting treated with azaconazole, bitertanol or another listed azole-type fungicide, four weeks after treatment. The class given is in vivo.
From the text: A 30 to 40 cm stem cutting of sugar cane is placed on a wet soil, and germination is stimulated. The stem cutting from which a bud has grown to about 1 cm is selected, and the length of the stem cutting is adjusted to be 3 cm so that the stem cutting has one node. Azaconazole, bitertanol, bromoconazole, cyproconazole, difenoconazole, diniconazole, epoxyconazole, fenbuconazole, fluquinconazole, flusilazole, flutriafol, hexaconazole, imibenconazole, ipconazole, metconazole, myclobutanil, penconazole, propiconazole, prothioconazole, simeconazole, tebuconazole, tetraconazole, triadimenol, triticonazole, fenarimol, nuarimol, pyrifenox, imazalil, oxpoconazole fumarate, pefurazoate, procloraz or triflumizole is adhered to the stem cutting. A soil is packed into a plastic pot, and seeds of Amaranthus retroflexus are seeded thereon. The stem cutting of sugar cane treated with azaconazole, bitertanol, bromoconazole, cyproconazole, difenoconazole, diniconazole, epoxyconazole, fenbuconazole, fluquinconazole, flusilazole, flutriafol, hexaconazole, imibenconazole, ipconazole, metconazole, myclobutanil, penconazole, propiconazole, prothioconazole, simeconazole, tebuconazole, tetraconazole, triadimenol, triticonazole, fenarimol, nuarimol, pyrifenox, imazalil, oxpoconazole fumarate, pefurazoate, procloraz or triflumizole is planted in the soil packed into the pot at a depth of 2 cm. […] Thereafter, the pot for a test is placed in a greenhouse.
Data set [8] concerns sugar cane. Briefly: Phytotoxicity on sugar cane, soil surface spray, metalaxyl-treated stem cutting (Example 12).
From the text: as §1
as §2, with “cutting. A soil is packed into a plastic pot. Seeds of Amaranthus retroflexus are seeded thereon. The stem cutting of sugar cane treated with metalaxyl or metalaxyl-M is planted in the soil packed into the pot at a depth of 2 cm. […] Thereafter, the pot for a test is placed in a greenhouse.” for “cutting.”

Data set [9] concerns sugar cane. Briefly: Phytotoxicity on sugar cane, spray above weed before planting, strobilurin-treated stem cutting (Example 9). As to the method:
as §1, §4
(§5) A 30 cm to 40 cm stem cutting of sugar cane is placed on a wet soil, and germination is stimulated. The stem cutting from which a bud has grown to about 1 cm is selected, and the length of the stem cutting is adjusted to be 3 cm so that the stem cutting has one node. Kresoxim-methyl, azoxystrobin, trifloxystrobin, fluoxastrobin, picoxystrobin, pyraclostrobin, dimoxystrobin, pyribencarb, metominostrobin, orysastrobin, enestrobin, pyraoxystrobin or pyrametostrobin is adhered to the stem cutting.
as §3

Data set [10] relates to Amaranthus retroflexus. Briefly: Herbicidal activity, spray above weed before planting, strobilurin-treated stem cutting (Example 9). It counts as in vivo. Particulars: sprayed above weed, 3 cm stem cutting treated with kresoxim-methyl, azoxystrobin or another listed strobilurin fungicide planted one week after treatment, four weeks after treatment.
The subject of data set [11] is sugar cane. Description: Phytotoxicity on sugar cane, spray above weed before planting, insecticide-treated stem cutting (Example 7). As to the method:
as §1, §4
A 30 cm to 40 cm stem cutting of sugar cane is placed on a wet soil, and germination is stimulated. The stem cutting from which a bud has grown to about 1 cm is selected, and the length of the stem cutting is adjusted to be 3 cm so that the stem cutting has one node. Clothianidin, thiamethoxiam, imidacloprid, dinotefuran, nitenpyram, acetamiprid or thiacloprid is adhered to the stem cutting.
as §3

Data set [12] concerns Amaranthus retroflexus. Description: Herbicidal activity, spray above weed before planting, metalaxyl-treated stem cutting (Example 13). It counts as in vivo. Particulars: sprayed above weed, 3 cm stem cutting treated with metalaxyl or metalaxyl-M planted one week after treatment, four weeks after treatment.
Data set [13] relates to sugar cane. Briefly: Phytotoxicity on sugar cane, soil surface spray, strobilurin-treated stem cutting (Example 8).
From the text: as §1
as §5, with “cutting. A soil is packed into a plastic pot, and seeds of Amaranthus retroflexus are seeded thereon. The stem cutting of sugar cane treated with kresoxim-methyl, azoxystrobin, trifloxystrobin, fluoxastrobin, picoxystrobin, pyraclostrobin, dimoxystrobin, pyribencarb, metominostrobin, orysastrobin, enestrobin, pyraoxystrobin or pyrametostrobin is planted in the soil packed into the pot at a depth of 2 cm. […] Thereafter, the pot for a test is placed in a greenhouse.” for “cutting.”

Data set [14] deals with Amaranthus retroflexus. Description: Herbicidal activity, soil surface spray, metalaxyl-treated stem cutting (Example 12). It counts as in vivo. To be noted: 3 cm stem cutting treated with metalaxyl or metalaxyl-M, four weeks after treatment. As to the method: A soil is packed into a plastic pot. Seeds of Amaranthus retroflexus are seeded thereon.

Take `C#CCN1C(=O)COc2cc(F)c(N3C(=O)C4=C(CCCC4)C3=O)cc21` [Flumioxazin, flumioxazin]: the phytotoxicity result in data set [1] (Example 13, sprayed above weed, 3 cm stem cutting treated with metalaxyl or metalaxyl-M planted one week after treatment, four weeks after treatment) is on record as “significant phytotoxicity on sugar cane is not observed”; in data set [4] (Example 5, sprayed above weed three weeks after seeding, 3 cm stem cutting planted one week after treatment, four weeks after treatment), “significant phytotoxicity on sugar cane is not found”; in data set [8] (Example 12, 3 cm stem cutting treated with metalaxyl or metalaxyl-M, soil surface spray, four weeks after treatment) it was “significant phytotoxicity on sugar cane is not observed”; in data set [9] (Example 9, sprayed above weed, 3 cm stem cutting treated with kresoxim-methyl, azoxystrobin or another listed strobilurin fungicide planted one week after treatment, four weeks after treatment), “significant phytotoxicity on sugar cane is not observed”; in [11] (Example 7, sprayed above weed, 3 cm stem cutting treated with clothianidin, thiamethoxiam, imidacloprid, dinotefuran, nitenpyram, acetamiprid or thiacloprid planted one week after treatment, four weeks after treatment) it was “significant phytotoxicity on sugar cane is not observed”; in data set [13] (Example 8, 3 cm stem cutting treated with kresoxim-methyl, azoxystrobin or another listed strobilurin fungicide, soil surface spray, four weeks after treatment) it was “significant phytotoxicity on sugar cane is not observed”. Moreover, the “herbicidal activity against Amaranthus retroflexus” value (“herbicidal activity” for short) in [2] is given as “the controlling effect on a weed can be confirmed”; in [3] it was “the controlling effect on a weed can be confirmed”; in data set [5] it was “the controlling effect on a weed can be confirmed”; in data set [6] it was “the controlling effect on a weed can be confirmed”; in data set [7], “the control effect on a weed can be confirmed”; in data set [10], “the controlling effect on a weed can be confirmed”. Further, the “herbicidal activity” value in data set [12] and in data set [14] was “the controlling effect on a weed can be confirmed” in each case.
With `Cc1nn(-c2cc(NS(C)(=O)=O)c(Cl)cc2Cl)c(=O)n1C(F)F` [sulfentrazone], the phytotoxicity result in data set [1] (in vivo) was “significant phytotoxicity on sugar cane is not observed”; in [4] (in vivo), “significant phytotoxicity on sugar cane is not found”; in data set [8] (in vivo), “significant phytotoxicity on sugar cane is not observed”; in data set [9] (in vivo), “significant phytotoxicity on sugar cane is not observed”; in data set [11] (in vivo) it was “significant phytotoxicity on sugar cane is not observed”; in data set [13] (in vivo), “significant phytotoxicity on sugar cane is not observed”. Also, the “herbicidal activity” value in [2] is on record as “the controlling effect on a weed can be confirmed”; in data set [3], “the controlling effect on a weed can be confirmed”; in [5] it was “the controlling effect on a weed can be confirmed”; in data set [6], “the controlling effect on a weed can be confirmed”; in data set [7], “the control effect on a weed can be confirmed”; in data set [10], “the controlling effect on a weed can be confirmed”. The “herbicidal activity” value in [12] and in [14] was “the controlling effect on a weed can be confirmed” throughout.

For the origin of these results see US20140329682A1, “METHOD OF CONTROLLING WEED IN A SUGAR CANE FIELD” (SUMITOMO CHEMICAL COMPANY, LIMITED, priority 2011, published 2014).
